Assay results published in patent publication US12325697B2 (Nimbus Clio, Inc., priority 2021, dated 2025).

Biological target: Recombinant human Cbl-b (aa 36-427) (Homo sapiens (Human), UniProt Q13191)
Test: Cbl-b Biochemical Assay (TR-FRET)
Details: read-out: TR-FRET hCbl-b IC50
Procedure: Recombinant human Cbl-b (aa 36-427) was expressed in E. coli, purified and biotinylated in vitro. The protein was diluted to 12 nM in freshly prepared assay buffer consisting of 50 mM HEPES, pH 7.0, 100 mM NaCl, 5 mM MgCl2, 0.01% Triton-X 100, 0.01% BSA and 1 mM DTT. Recombinant human Src (aa 254-536)-[…]-Zap-70 (aa 281-297) fusion protein was expressed in E. coli and purified. Protein was diluted in assay buffer to 2-5 nM and supplemented with ATP to 1 mM. Fluorescein-BODIPY labeled UBE[…]([…])-Ub was prepared by conjugating ubiquitin (Ub) labeled at its N-terminus with Fluorescein-BODIPY maleimide (ThermoFisher Catalog no B10250) to E. coli expressed and purified UBE[…]([…]) [see Dou et al Nature Structural and Molecular Biology 8: 982-987, 2013]. Recombinant human UBE2D2([…]) was expressed in E. coli, purified and ubiquitinated and Bodipy labelled in vitro. Protein was diluted to 200 nM in assay buffer without MgCl2 (or Cisbio PPI buffer). Streptavidin-Terbium was added to 2 nM and EDTA to 10 mM, to provide a binding assay mix. Compounds were dissolved in DMSO and diluted to prepare a ten-point dilution series. 100 nl of each compound concentration was dispensed in duplicate in a 384 well black assay plate using acoustic dispensing. Wells for maximum signal controls received 100 nl of DMSO only and wells for minimum signal controls received 100 nl of a reference inhibitor compound at a final assay concentration of […] to produce 100% inhibition. 5 μl of diluted Cbl-b enzyme was added to all wells of the assay plate and incubated at RT for 30-60 min. The enzyme assay was initiated by addition of 5 μl of Src-Zap/ATP mix to all wells, and the plate incubated at RT for 60 min. The enzyme reaction was terminated and the binding reaction was initiated by adding 10 μl of binding assay mix to all wells and incubating the plate at RT for 60 min prior to assay read. Final assay conditions consisted of 6 nM Cbl-b, 1-2.5 nM Src-Zap70, 0.5 mM ATP, 1% (v/v) DMSO (enzyme reaction) and 100 nM UBE2D2([…])-Ub-FL-BODIPY, 5 mM EDTA, 1 nM Streptavidin-Tb (binding reaction). The HTRF assay signal was measured at 520 nm on an Envision plate reader, with reference signal at 485 or 620 nm. Data was normalized using maximum and minimum assay controls: % Inhibition=100-(100*((maximum control)-unknown)/(maximum control-minimum control)). A 4-parameter dose-response equation was used to fit the normalized dose-response data and derive an IC50 for test compounds.

Recombinant human Cbl-b (aa 36-427), sequence (Q13191 36-427): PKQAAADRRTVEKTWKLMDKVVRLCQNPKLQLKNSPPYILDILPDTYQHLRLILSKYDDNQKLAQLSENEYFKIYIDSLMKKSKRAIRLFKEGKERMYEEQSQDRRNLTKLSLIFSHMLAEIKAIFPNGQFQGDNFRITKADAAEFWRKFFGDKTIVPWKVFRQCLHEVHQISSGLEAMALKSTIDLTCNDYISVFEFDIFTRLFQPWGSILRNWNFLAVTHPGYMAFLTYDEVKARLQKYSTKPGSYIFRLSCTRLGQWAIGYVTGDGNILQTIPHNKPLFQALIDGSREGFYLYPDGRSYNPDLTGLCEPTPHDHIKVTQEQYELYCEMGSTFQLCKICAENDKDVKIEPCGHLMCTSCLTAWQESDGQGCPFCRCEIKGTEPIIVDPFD

SMILES | IC50
Cn1cnnc1-c1cnn(C)c1-c1cc(Cl)nc(N2Cc3c(cc(CN4CCC5(CC5)C4)cc3C(F)(F)F)C2=O)c1 [ABD-1, 6-((5-Azaspiro [2.4]heptan-5-yl)methyl)-2-(6-chloro-4-(1-methyl-4-(4-methyl-4H-1,2,4-triazol-3-yl)-1H-pyrazol-5-yl)pyridin-2-yl)-4-(trifluoromethyl)isoindolin-1-one] | 0.2 to 1 µM
Cn1cnnc1-c1cnn(C)c1-c1cc(O)nc(N2Cc3c(cc(CN4CCC5(CC5)C4)cc3C(F)(F)F)C2=O)c1 [ABE-1, 6-((5-Azaspiro [2.4]heptan-5-yl)methyl)-2-(6-hydroxy-4-(1-methyl-4-(4-methyl-4H-1,2,4-triazol-3-yl)-1H-pyrazol-5-yl)pyridin-2-yl)-4-(trifluoromethyl)isoindolin-1-one] | 1 to 10 µM
CCNc1cc(-c2c(-c3nncn3C)cnn2C)cc(NC(=O)c2cc(CN3CCC4(CC4)C3)cc(C3CC3)n2)n1 [ABF-8, 4-((5-Azaspiro [2.4]heptan-5-yl)methyl)-6-cyclopropyl-N-(6-(ethylamino)-4-(1-methyl-4-(4-methyl-4H-1,2,4-triazol-3-yl)-1H-pyrazol-5-yl)pyridin-2-yl)picolinamide] | ≤ 0.2 µM
Cn1cnnc1-c1cnn(C)c1-c1cc(CN)nc(N2Cc3c(cccc3C(F)(F)F)C2=O)c1 [ABG-3, 2-(6-(Aminomethyl)-4-(1-methyl-4-(4-methyl-4H-1,2,4-triazol-3-yl)-1H-pyrazol-5-yl)pyridin-2-yl)-4-(trifluoromethyl)isoindolin-1-one] | 10 to 50 µM
CCOc1cc(-c2c(-c3nncn3C)cnn2C)cc(N2Cc3c(cccc3C(F)(F)F)C2=O)n1 [ABH-2, 2-(6-Ethoxy-4-(1-methyl-4-(4-methyl-4H-1,2,4-triazol-3-yl)-1H-pyrazol-5-yl)pyridin-2-yl)-4-(trifluoromethyl)isoindolin-1-one] | 0.2 to 1 µM
CC(C)Nc1cc(-c2c(-c3nncn3C)cnn2C)cc(N2Cc3c(cccc3C(F)(F)F)C2=O)n1 [ABI-1, 2-(6-(Isopropylamino)-4-(1-methyl-4-(4-methyl-4H-1,2,4-triazol-3-yl)-1H-pyrazol-5-yl)pyridin-2-yl)-4-(trifluoromethyl)isoindolin-1-one] | ≤ 0.2 µM
CCNc1cc(-c2c(-c3nncn3C)cnn2C)cc(NC(=O)c2cc(C)nc(C3CC3)n2)n1 [ABJ-4, 2-Cyclopropyl-N-(6-(ethylamino)-4-(1-methyl-4-(4-methyl-4H-1,2,4-triazol-3-yl)-1H-pyrazol-5-yl)pyridin-2-yl)-6-methylpyrimidine-4-carboxamide] | 0.2 to 1 µM
Cn1cnnc1-c1ccccc1-c1cccc(NC(=O)c2cc(OCCN3CCCC3)nc(C3CC3)n2)c1 [ABK-7, 2-Cyclopropyl-N-(2′-(4-methyl-4H-1,2,4-triazol-3-yl)-[1,1′-biphenyl]-3-yl)-6-(2-(pyrrolidin-1-yl)ethoxy)pyrimidine-4-carboxamide] | 0.2 to 1 µM
CCNc1cc(-c2c(-c3nncn3C)cnn2C)cc(NC(=O)c2cc(=O)n(CCN3CCCC3)c(C3CC3)n2)n1 [ABL-4, 2-Cyclopropyl-N-(6-(ethylamino)-4-(1-methyl-4-(4-methyl-4H-1,2,4-triazol-3-yl)-1H-pyrazol-5-yl)pyridin-2-yl)-6-oxo-1-(2-(pyrrolidin-1-yl)ethyl)-1,6-dihydropyrimidine-4-carboxamide] | 10 to 50 µM
Cn1cnnc1-c1ccccc1-c1cccc(NC(=O)c2cc(=O)n(CCN3CCCC3)c(C3CC3)n2)c1 [ABM-1, 2-Cyclopropyl-N-(2′-(4-methyl-4H-1,2,4-triazol-3-yl)-[1,1′-biphenyl]-3-yl)-6-oxo-1-(2-(pyrrolidin-1-yl)ethyl)-1,6-dihydropyrimidine-4-carboxamide] | 1 to 10 µM
CCNc1cc(-c2c(-c3nncn3C)cnn2C)cc(N2Cc3c(cc(CN4CC(F)C4)cc3C(F)(F)F)C2=O)n1 [ABN-2, 2-(6-(Ethylamino)-4-(1-methyl-4-(4-methyl-4H-1,2,4-triazol-3-yl)-1H-pyrazol-5-yl)pyridin-2-yl)-6-((3-fluoroazetidin-1-yl)methyl)-4-(trifluoromethyl)isoindolin-1-one] | ≤ 0.2 µM
CCNc1cc(-c2c(-c3nncn3C)cnn2C)cc(N2Cc3c(cc(CN4CCC(F)C4)cc3C(F)(F)F)C2=O)n1 (stereo not drawn) [ABP-3, 2-(6-(Ethylamino)-4-(1-methyl-4-(4-methyl-4H-1,2,4-triazol-3-yl)-1H-pyrazol-5-yl)pyridin-2-yl)-6-((3-fluoropyrrolidin-1-yl)methyl)-4-(trifluoromethyl)isoindolin-1-one] | ≤ 0.2 µM
CCNc1cc(-c2c(-c3nncn3C)cnn2C)cc(C(=O)O)n1 [ABQ-1, 6-(Ethylamino)-4-(1-methyl-4-(4-methyl-4H-1,2,4-triazol-3-yl)-1H-pyrazol-5-yl)picolinic acid] | 10 to 50 µM
CCNc1cc(-c2ccccc2-c2nncn2C)cc(N2Cc3c(cc(CN4CCC5(CC5)C4)cc3C(F)(F)F)C2=O)n1 [ABR-1, 6-((5-Azaspiro [2.4]heptan-5-yl)methyl)-2-(6-(ethylamino)-4-(2-(4-methyl-4H-1,2,4-triazol-3-yl)phenyl)pyridin-2-yl)-4-(trifluoromethyl)isoindolin-1-one] | ≤ 0.2 µM
Cn1cnnc1-c1ccccc1-c1cc(NCCO)nc(N2Cc3c(cccc3C(F)(F)F)C2=O)c1 [ABT-2, 2-(6-((2-Hydroxyethyl)amino)-4-(2-(4-methyl-4H-1,2,4-triazol-3-yl)phenyl)pyridin-2-yl)-4-(trifluoromethyl)isoindolin-1-one] | 0.2 to 1 µM
CCNc1cc(-c2c(-c3nncn3C)cnn2C)cc(NC(=O)c2cc(OCCN3CCCC3)nc(C3CC3)n2)n1 [ABU-2, 2-Cyclopropyl-N-(6-(ethylamino)-4-(1-methyl-4-(4-methyl-4H-1,2,4-triazol-3-yl)-1H-pyrazol-5-yl)pyridin-2-yl)-6-(2-(pyrrolidin-1-yl)ethoxy)pyrimidine-4-carboxamide] | 0.2 to 1 µM
CCNc1cc(-c2c(-c3nncn3C)cnn2C)cc(CNC(=O)OC(C)(C)C)n1 [ABV-1, tert-Butyl ((6-(ethylamino)-4-(1-methyl-4-(4-methyl-4H-1,2,4-triazol-3-yl)-1H-pyrazol-5-yl)pyridin-2-yl)methyl)carba mate] | 10 to 50 µM
CCNc1cc(-c2c(-c3nncn3C)cnn2C)cc(NC(=O)c2cc(C)cc(C3CC3)n2)n1 [ABW-3, 6-Cyclopropyl-N-(6-(ethylamino)-4-(1-methyl-4-(4-methyl-4H-1,2,4-triazol-3-yl)-1H-pyrazol-5-yl)pyridin-2-yl)-4-methylpicolinamide] | 0.2 to 1 µM
CCNc1cc(-c2c(-c3nncn3C)cnn2C)cc(N2Cc3c(cccc3C(F)(F)F)C2=O)c1 [ABX-6, 2-[3-(Ethylamino)-5-[2-methyl-4-(4-methyl-1,2,4-triazol-3-yl)pyrazol-3-yl]phenyl]-4-(trifluoromethyl)-3H-isoindol-1-one] | ≤ 0.2 µM
CCNc1cc(-c2c(-c3nncn3C)cnn2C)cc(NC(=O)c2cc(CO)cc(C3CC3)n2)n1 [ABZ-7, 6-Cyclopropyl-N-(6-(ethylamino)-4-(1-methyl-4-(4-methyl-4H-1,2,4-triazol-3-yl)-1H-pyrazol-5-yl)pyridin-2-yl)-4-(hydroxymethyl) picolinamide] | ≤ 0.2 µM
Cn1cnnc1-c1ccccc1-c1cc(N2CCCC2)nc(N2Cc3c(cccc3C(F)(F)F)C2=O)c1 [AC-3] | 1 to 10 µM
CCNc1cc(-c2c(-c3nncn3C)cnn2C)cc(N2Cc3c(cc(CN4CC[C@@H](F)C4)cc3C(F)(F)F)C2=O)n1 [ACA-1, (R)-2-(6-(Ethylamino)-4-(1-methyl-4-(4-methyl-4H-1,2,4-triazol-3-yl)-1H-pyrazol-5-yl)pyridin-2-yl)-6-((3-fluoropyrrolidin-1-yl)methyl)-4-(trifluoromethyl)isoindolin-1-one] | ≤ 0.2 µM
CCNc1cc(-c2c(-c3nncn3C)cnn2C)cc(N2Cc3c(cc(CN4CC[C@H](F)C4)cc3C(F)(F)F)C2=O)n1 [ACB-1, (S)-2-(6-(Ethylamino)-4-(1-methyl-4-(4-methyl-4H-1,2,4-triazol-3-yl)-1H-pyrazol-5-yl)pyridin-2-yl)-6-((3-fluoropyrrolidin-1-yl)methyl)-4-(trifluoromethyl)isoindolin-1-one] | ≤ 0.2 µM
Cn1cnnc1-c1cc(C#N)ccc1-c1cccc(N2Cc3c(cccc3C(F)(F)F)C2=O)c1 [ACC-8, 2-(4-Methyl-4H-1,2,4-triazol-3-yl)-3′-(1-oxo-4-(trifluoromethyl)isoindolin-2-yl)-[1,1′-biphenyl]-4-carbonitrile] | ≤ 0.2 µM
